The assay concerns the target SARS-CoV2-Mpro (Severe acute respiratory syndrome coronavirus 2 (2019-nCoV) (SARS-CoV-2), UniProt P0DTD1). Description: Primary assay: SARS-CoV2-Mpro enzymatic activity inhibition. The conditions noted are these: enzyme preincubated with compound for 20 min; slope of linear portion of signal. Type of assay: biochemical. The method, then: Example A. Primary Assay Used to Determine Potency of SARS-CoV2-Mpro Enzymatic Activity Inhibition
• (1) Deliver 2× Enzyme • (2) Deliver buffer into No Enzyme wells • (3) Deliver compounds in 100% DMSO by using Acoustic technology (Echo550; nanoliter range) • (4) Incubate for 20 min • (5) Deliver 2× Substrate to initiate the reaction • (6) Spin & shake, start measuring in EnVision at rt; 5 min interval for 25 (2 hours) • (7) Analyze data by taking slope (signal/time) of linear portion of measurement • (8) Slope is calculated by using Excel, and curve fits are performed using Prism software.
The % inhibition was then used to calculate the IC50 values. The IC50 values are shown in Table A, wherein “A” corresponds to IC50<10.0 nm, “B” corresponds to 10.0 nm≤IC50<50.0 nm, “C” corresponds to 50.0 nm≤IC50<100.0 nm, “D” corresponds to 100.0 nm≤IC50<500.0 nm, and “E” corresponds to 500.0 nm≤IC50<1000.0 nm, and “F” corresponds to 1000.0 nm≤IC50.
As to `CCCN(C(=O)[C@@H]1[C@@H]2[C@H](CN1C(=O)[C@@H](NC(=O)C(F)(F)F)C(C)(C)C)C2(C)C)[C@H](C#N)C[C@@H]1C(=O)Nc2ccccc21` [Compound 248, (1R,2S,5S)-N-[(1S)-1-cyano-2-(2-oxoindolin-3-yl)ethyl]-3-[(2S)-3,3-dimethyl-2-[(2,2,2-trifluoroacetyl)amino]butanoyl]-6,6-dimethyl-N-propyl-3-azabicyclo[3.1.0]hexane-2-carboxamide], the IC50 is at least 1000 nM. Regarding `CC(C)(C)[C@H](NC(=O)C(F)(F)F)C(=O)N1C[C@H]2[C@@H]([C@H]1C(=O)NC(C#N)CC1C(=O)Nc3ncccc31)C2(C)C` (stereo partly shown) [Compound 249], the concentration for half-maximal inhibition (IC50) is 500 to 1000 nM. The result for `CC(C)(C)[C@H](NS(C)(=O)=O)C(=O)N1C[C@H]2C([C@H]1C(=O)N[C@H](C#N)C[C@@H]1CCNC1=O)C2(C)C` (stereo in doubt) [Compound 201, (1R,2S,5S)—N—((S)-1-Cyano-2-((S)-2-oxopyrrolidin-3-yl)ethyl)-3-((S)-3,3-dimethyl-2-(methylsulfonamido)butanoyl)-6,6-dimethyl-3-azabicyclo[3.1.0]hexane-2-carboxamide] reads 10 to 50 nM. The value for `CC(C)(C)[C@H](NC(=O)C(F)(F)F)C(=O)N1C[C@H]2[C@@H]([C@H]1C(=O)NC(C#N)CCC1C(=O)Nc3ccccc31)C2(C)C` (stereo partly drawn) [Compound 250, (1R,2S,5S)—N-[1-Cyano-3-(2-oxoindolin-3-yl)propyl]-6,6-dimethyl-3-[(2S)-3,3-dimethyl-2-[(2,2,2-trifluoroacetyl)amino]butanoyl]-3-azabicyclo[3.1.0]hexane-2-carboxamide] was 500 to 1000 nM; that for `COc1ccc2c(c1)NC(=O)C2C[C@@H](C#N)NC(=O)[C@@H]1[C@H]2[C@H](CN1C(=O)[C@@H](NC(=O)C(F)(F)F)C(C)(C)C)C2(C)C` (stereo partly drawn) [Compound 222, (1S,2S,5S)-N-[(1S)-1-cyano-2-(6-methoxy-2-oxo-indolin-3-yl)ethyl]-3-[(2S)-3,3-dimethyl-2-[(2,2,2-trifluoroacetyl)amino]butanoyl]-6,6-dimethyl-3-azabicyclo[3.1.0]hexane-2-carboxamide] was 10 to 50 nM; that for `CC(C)(C)[C@H](NC(=O)C(F)(F)F)C(=O)N1C[C@H]2[C@H]([C@H]1C(=O)N[C@H](C#N)CC1C(=O)Nc3cc(Cl)ccc31)C2(C)C` (stereo partly drawn) [Compound 219, (1S,2S,5S)-N-[(1S)-2-(6-chloro-2-oxo-indolin-3-yl)-1-cyano-ethyl]-3-[(2S)-3,3-dimethyl-2-[(2,2,2-trifluoroacetyl)amino]butanoyl]-6,6-dimethyl-3-azabicyclo[3.1.0]hexane-2-carboxamide] was 10 to 50 nM. The result for `COC(=O)N[C@H](C(=O)N1C[C@H]2C([C@H]1C(=O)N[C@H](C#N)CC1C(=O)Nc3ccccc31)C2(C)C)C(C)(C)C` (stereo in doubt) [Compound 243, Methyl N-[(1S)-1-[(1S)-2-[[(1S)-1-cyano-2-(2-oxoindolin-3-yl)ethyl]carbamoyl]-6,6-dimethyl-3-azabicyclo[3.1.0]hexane-3-carbonyl]-2,2-dimethyl-propyl]carbamate] reads below 10 nM. Consider `CCOC(=O)N[C@@H](CC(C)C)C(=O)N1C[C@H]2C([C@H]1C(=O)N[C@H](C#N)CC1C(=O)Nc3ccccc31)C2(C)C` (stereo in doubt) [Compound 246, ethyl N-[(1S)-1-[(1S,2S,5S)-2-[[(1S)-1-cyano-2-(2-oxoindolin-3-yl)ethyl]carbamoyl]-6,6-dimethyl-3-azabicyclo[3.1.0]hexane-3-carbonyl]-3-methyl-butyl]carbamate], for which the IC50 lay in the range of 10 to 50 nM.

With `CC(C)(C)[C@H](NC(=O)C(F)(F)F)C(=O)N1C[C@H]2[C@H]([C@H]1C(=O)NC(C#N)CC1C(=O)Nc3ccccc31)C2(C)C` (stereo partly drawn) [Compound 226, (1S,2S,5S)—N-[1-cyano-2-(2-oxoindolin-3-yl)ethyl]-3-[(2S)-3,3-dimethyl-2-[(2,2,2-trifluoroacetyl)amino]butanoyl]-6,6-dimethyl-3-azabicyclo[3.1.0]hexane-2-carboxamide], the IC50 was below 10 nM. As to `CCOC(=O)N[C@H](C(=O)N1C[C@H]2C([C@H]1C(=O)N[C@H](C#N)CC1C(=O)Nc3ccccc31)C2(C)C)C(C)(C)C` (stereo in doubt) [Compound 244, Ethyl N-[(1S)-1-[(1S)-2-[[(1S)-1-cyano-2-(2-oxoindolin-3-yl)ethyl]carbamoyl]-6,6-dimethyl-3-azabicyclo[3.1.0]hexane-3-carbonyl]-2,2-dimethyl-propyl]carbamate], the IC50 lay within 10 to 50 nM. The result for `CC(C)(C)[C@H](NS(C)(=O)=O)C(=O)N1C[C@H]2C([C@H]1C(=O)N[C@H](C#N)C[C@@H]1C(=O)Nc3ccccc31)C2(C)C` (stereo in doubt) [Compound 238, (1S,2S,5S)-N-[(1S)-1-cyano-2-(2-oxoindolin-3-yl)ethyl]-3-[(2S)-2-(methanesulfonamido)-3,3-dimethyl-butanoyl]-6,6-dimethyl-3-azabicyclo[3.1.0]hexane-2-carboxamide] reads below 10 nM; that for `CC(C)(C)[C@H](NC(=O)C(F)(F)F)C(=O)N1C[C@H]2C([C@H]1C(=O)NC(C#N)CC1(F)C(=O)Nc3ccccc31)C2(C)C` (stereo in doubt) [Compound 227, (1S,2S,5S)-N-[1-cyano-2-(3-fluoro-2-oxo-indolin-3-yl)ethyl]-3-[(2S)-3,3-dimethyl-2-[(2,2,2-trifluoroacetyl)amino]butanoyl]-6,6-dimethyl-3-azabicyclo[3.1.0]hexane-2-carboxamide], 10 to 50 nM. The value for `Cc1ccc2c(c1)C(F)(CC(C#N)NC(=O)C1C3[C@H](CN1C(=O)[C@@H](NC(=O)C(F)(F)F)C(C)(C)C)C3(C)C)C(=O)N2` (stereo in doubt) [Compound 229, (1S,2S,5S)-N-[1-cyano-2-(3-fluoro-5-methyl-2-oxo-indolin-3-yl)ethyl]-3-[(2S)-3,3-dimethyl-2-[(2,2,2-trifluoroacetyl)amino]butanoyl]-6,6-dimethyl-3-azabicyclo[3.1.0]hexane-2-carboxamide] was 10 to 50 nM.

Broadly, the IC50 is the point on the concentration scale where inhibition reaches its midpoint.
